Data taken from publication PMC11793105, “A kalihinol analog disrupts apicoplast function and vesicular trafficking in P. falciparum malaria” (Science (New York, N.Y.), 2024).
pIC50: −log10 of the molar value. Where two headings read alike, the source gives them in different places.

Legend:
[1] = molecular target: hPXR (human pregnane X receptor) (Homo sapiens, UniProt O75469); test: Enhanced Cross Screen Panel (eXP): hPXR; type: in vitro ADME
HeLa = test: Human cell line activity, HeLa; type: cell-based; details: read-out: IC50 (µM) HeLa
[2] = test system: 3D7 Clone-Kalihinol Treated (MED6-189 resistant line); test: SYBR Green dose response, MED6-189-selected resistant line; type: cell-based, Plasmodium falciparum; details: resistant line after ~36 months of drug pressure
Source text: To assess whether we could use the DMSO melting curves previously established for […] by Dziekan et al. ([49]), we calculated the difference in melting temperatures (ΔTm) between our DMSO dataset and Dziekan’s for 364 proteins for which Tm values were confidently calculated by mineCETSA (table S6).
(§1) Fig. 4. […] (C) Schematic representation of the CRISPR-Cas9–based replacement strategy used to introduce a deletion of the targeted repeat regions in the PfSec13 gene. The insertion was achieved through overlap extension polymerase chain reaction (PCR) of fragments directly upstream and downstream of the target segment and subsequently formed by primer overlap extension PCR to replicate the desired deletion. […] (D) Predicted structure of the SEC13 protein highlighting the seven amino acid tandem repeat regions targeted for deletion (red). […] Data were analyzed using a Sigmoidal, 4PL (X represents concentration, n = 3, nonlinear regression, CI: 95%).
(§2) P. falciparum in vitro SYBR green fluorescence-based assays The anti-malarial activity of individual analogues were evaluated in-vitro against P. falciparum 3D7 (MRA-102, drug […]
green-I based fluorescence assay. Parasite growth rate and stages of development were determined via microscopy through Giemsa-stained smears of the cultures. […]

[3] = test system: PfSec13-mut transgenic clones (3D7); test: Parasite survival assay, CRISPR-Cas9 PfSec13-mut transgenic clones; type: cell-based; details: Plasmodium falciparum
Source text: as §1, §2
green-I based fluorescence assay. Parasite growth rate and stages of development were determined via microscopy through Giemsa-stained smears of the cultures. Serial dilutions of the compounds ranging from 10uM-0.5nM were prepared in 96-well plates (Corning, Costar 3904) followed by […]
hematocrit added to each well. Eight wells were treated with vehicle control (DMSO) as control.
Plates were incubated in a modular incubation chamber (Billups-Rothenberg, Del Mar, CA)

[4] = test system: synchronized P. falciparum 3D7 parasites; test: Parasitemia and asexual stage phenotype analyses; type: cell-based, Plasmodium falciparum; details: IC80, synchronized 3D7, second IEC
Experimental: Fig. 1. […] (B) SYBR Green–based dose response assays were conducted on early-ring stage parasites (6 hours after invasion). […] 3D7 WT (blue), NF54 (green), drug-resistant strains Dd2 (red), HB3 (black), W2 (gray), and D10-ACP-GFP (purple) lines (Sigmoidal, 4PL, X is concentration, n ≥ 3, nonlinear regression, CI: 95%). (C) Schematic diagram of the development of P. falciparum after two consecutive erythrocytic cycles. The time points at which MED6-189 was introduced are depicted in green. HPS, hours post synchronization. […] The images depict various developmental stages of the parasite’s intraerythrocytic life cycle. Bordered images represent time points when drug was first introduced (n = 3 biological replicates, P < 0.05). […]
Data analysis The percentage of parasitized erythrocytes was determined by enumerating the number of Hoechst positive events out of the total erythrocytes after excluding non-single cells by forward and side scatter. The percent survival was calculated by averaging the parasitemia in the triplicates for each condition and then dividing by the parasitemia observed in the wells that did not receive drug treatment. The IC50 was then calculated using GraphPad Prism 9 (GraphPad […]
hrs. […] Parasitemia and proportion of the different asexual blood stages were determined by counting Giemsa-stained blood smears by light microscopy at every 12-hour time point. […]

[5] = test system: P. falciparum NF54 gametocytes; test: Gametocyte development (sexual stage phenotype) assay; type: cell-based, Plasmodium falciparum; set-up: gametocytes after high dose: dose or concentration left out as unconfirmed
Source text: Parasitemia and sexual stage phenotype analyses To understand the phenotypic effects of […]
exposed to stress induced gametocyte induction followed by treatment with N-acetyl glucosamine (NAG; Sigma-Aldrich) supplemented media for 6-7 days to eliminate remaining asexual parasites.
Upon first signs of gametocyte formation observed through giemsa stained smears (5-7 post stress […]
with 3 biological replicates per condition. Culture media were replaced daily with reintroduction of the drug. Gametocyte parasitemia and proportion of the different sexual blood stages were determined by counting Giemsa-stained blood smears by light microscopy at every 24-hour time

HepG2 = test: Human cell line activity, HepG2; type: cell-based; details: HepG2, read-out: IC50 (µM) HepG2
erythrocytes = test: Hemolytic activity assay (Giemsa smeared culture images); type: cell-based; details: concentrations up to 10 μM
Experimental: and two formamide derivatives.
2 and GB209-3 compounds tested after 48Hr and 72Hr drug incubation. […]

Sequence of hPXR (human pregnane X receptor) (O75469 whole entry): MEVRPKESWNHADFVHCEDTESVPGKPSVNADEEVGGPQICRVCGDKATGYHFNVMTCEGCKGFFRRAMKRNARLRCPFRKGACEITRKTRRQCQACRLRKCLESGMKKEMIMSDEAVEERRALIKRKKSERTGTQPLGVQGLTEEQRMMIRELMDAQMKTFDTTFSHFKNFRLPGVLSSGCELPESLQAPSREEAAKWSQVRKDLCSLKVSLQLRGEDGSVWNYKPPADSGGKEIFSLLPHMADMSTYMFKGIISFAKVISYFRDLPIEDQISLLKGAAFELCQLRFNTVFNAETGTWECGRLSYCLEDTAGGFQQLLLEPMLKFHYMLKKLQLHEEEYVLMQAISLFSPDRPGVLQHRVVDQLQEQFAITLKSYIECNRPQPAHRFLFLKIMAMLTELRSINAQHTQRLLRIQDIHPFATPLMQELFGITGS

SMILES: [C-]#[N+][C@]1(C)CC[C@H]2[C@@H]([C@@H](C(C)C)CC[C@]2(C)[N+]#[C-])[C@H]1O [MED6-189]
- pIC50 [1]: 5.13
- IC50 (HeLa): 9.6 µM
- pIC50 ([2]; 3D7 Clone-Kalihinol Treated): 7.24
- pIC50 ([2]; Plasmodium falciparum, 3D7, 3D7 Clone-Kalihinol Treated): ~7.22
- pIC50 ([3]; 3D7, Sec13 mut-A): 7.22
- pIC50 ([3]; 3D7, Sec13 mut-B): 7.27
- pIC50 ([3]; 3D7, Sec13 mut-C): 7.31
- pIC50 ([3]; 3D7, Sec13 mut-D): 7.14
- pIC50 ([3]; 3D7, read-out: IC50 range, four PfSec13-mut transgenic clones): 7.14 to 7.30
- effect on asexual intraerythrocytic development [4]: unable to fully undergo schizogony or reinvasion
- (%) Gametocyte MED6-189 (average) ([5]; 300nM, day 1 post drug introduction): 0%
- (%) Gametocyte MED6-189 (average) ([5]; 300nM, day 2 post drug introduction): 0.1035%
- (%) Gametocyte MED6-189 (average) ([5]; 300nM, day 3 post drug introduction): 0.55%
- % Change of gametocytemia ([5]; 300nM, day 4): 100%
- (%) Gametocyte MED6-189 (average) ([5]; 300nM, day 4 post drug introduction): 1.5%
- (%) Gametocyte MED6-189 (average) ([5]; 300nM, day 5 post drug introduction): 3.175%
- (%) Gametocyte MED6-189 (average) ([5]; 300nM, day 6 post drug introduction): 2.102%
- (%) Gametocyte MED6-189 (average) ([5]; 300nM, day 7 post drug introduction): 1.15%
- (%) Gametocyte MED6-189 (average) ([5]; 300nM, day 8 post drug introduction): 1.35%
- (%) Gametocyte MED6-189 (average) ([5]; 300nM, day 9 post drug introduction): 1.25%
- inhibition of early gametocyte development vs controls ([5]; 300 nM, stage III: days 4 to 6): ~ 62%
- gametocytes after high dose ([5]; early stages of gametocyte development, after 48 hours of drug treatment): no quantifiable gametocytes were observed
- effect on mature-stage gametocytes ([5]; stage V): little to no effect
- IC50 (HepG2): 34 µM
- hemolytic activity (erythrocytes): no hemolytic activity
